Assay results taken from patent publication US9938321B2, “Cyclic peptoid oligomers, pharmaceutical compositions and methods of using the same” (priority 2013, dated 2018).
Values after ≈ are worked out from the molar mass of the structure shown. Where two headings read alike, the source gives them in different places. Blank lines part the entries; values can stand above or below the compound they belong to. Non-standard residues stand in square brackets, D forms with d. Residues, ends and D or L forms follow the SMILES beside them. Gly(N(CH2)3NH2) = NCCCNCC(=O)O; Nphe = O=C(O)CNCc1ccccc1; Orn = NCCC[C@H](N)C(=O)O; Nlys = NCCCCNCC(=O)O

Legend:
[1] = system: MRSA USA300 (S. aureus LAC)
Description: The cyclic pentamers and hexamers were evaluated for antimicrobial activity against S. aureus LAC, a clinical isolate of MRSA. The antimicrobial assay was conducted using previously published procedures (CLSI Broth Macrodilution Procedures CLSI M07-A7).
(§1) Minimum Inhibitory Concentrations (MIC) were determined against S. aureus LAC in RPMI media supplemented with or without normal human serum (NHS). The 10% hemolytic dose was determined from lysis of human erythrocytes. A selectivity ratio (SR) is defined as HC10/MIC. Cytotoxicity assays were performed using a CellTiter kit with HeLa cells. […] TI: therapeutic index defined as LD50/MIC.
(§2) Antimicrobial susceptibility assays were conducted in 96-well plates using the broth microdilution procedure outlined in the document M07-A7 of the CLSI (Clinical and Laboratory Standards Institute. Methods for Dilution Antimicrobial Susceptibility Tests for Bacteria That Grow Aerobically-Seventh Edition: Approved Standard CLSI document M07-A7. CLSI, Wayne, USA, 2006). Screens against Staphylococcus aureus LAC, MW2, Newman, and RN6734 were conducted in RPMI (Roswell Park Memorial Institute) medium. For assays in serum, normal human pooled serum (NHS) was filtered through a 0.45 μm syringe filter (Pall) prior to dilution with RPMI, such that each well contained 50% (v/v) NHS. Experiments were conducted in three independent replicates of three parallel trials to ensure statistical significance.
(§3) MRSA pulse-field gel electrophoresis types USA300 (strain LAC) (Kennedy, et al, Proc. Natl. Acad. Sci. U.S.A. 2008, 105, 1327-1332) and USA500 (BK2395) (Alonzo, 3rd, et al, Mol. Microbiol. 2012, 83, 423-435) were used in this study. S. aureus were grown in tryptic soy broth (BD Biosciences) as described previously. (Alonzo) Antimicrobial susceptibility assays were conducted in 96-well plates using the broth […] procedure outlined in the document M07-A7 of the CLSI. (Clinical and Laboratory Standards Institute. Methods for Dilution Antimicrobial Susceptibility Tests for Bacteria That Grow Aerobically-Seventh Edition: Approved Standard CLSI document M07-A7. CLSI, Wayne, USA, 2006). The screens against Staphylococcus aureus LAC were conducted in either LB (Luria-Bertani) or RPMI medium. For assays in serum, normal human pooled serum (NHS) was filtered through a 0.45 μm syringe filter (Pall) prior to dilution with RPMI, such that each well contained 50% (v/v) NHS. Experiments were conducted in three independent replicates of three parallel trials to ensure statistical significance.

in vitro = details: for CC50 at 1 h / CC50: LC50 (50% lethal concentration), HeLa cells, 1 hr incubation at 37° C.
Description: (§4) As an additional parameter of selectivity, the inventors also evaluated the compounds for toxicity towards nucleated mammalian cells (FIG. 3). The compounds were incubated with HeLa cells for 1 hr at 37° C. and cell viability was determined by a dye-based assay.
(§5) HeLa cells (˜[…] cells per well) were seeded in a tissue culture-treated 96-well plate (Corning). The cells were monitored for confluence via light microscopy prior to the addition of compounds to a final volume of 100 μL/well. Following incubation with the compounds (for 1 hour or 24 hours at 37° C.), Cell Titer (Promega) was added to each well and the assay was allowed to develop for 1 hour at 37° C. Absorbance was then read at 490 nm using a Wallac Envision plate reader. The experiments were always conducted in triplicate with water or ethanol as the negative control. Percent cell viability (% CV) was calculated as the ratio of mean absorbance of the test wells and the mean absorbance of the water or ethanol treated wells.
(§6) Following seeding in DMEM supplemented with 10% v/v FBS (fetal bovine serum) in tissue-culture plates (Corning), adherent HeLa cells were trypsinized, washed in PBS, and re-suspended in medium at a density of 1×10^6 cells/mL. A 100 μL cell suspension was seeded onto a 96-well plate and cultured for 25 hrs. Subsequently, cells were exposed to the different compounds for 1 and 24 hrs and the cell viability evaluated using CellTiter 96® AQueous Non-Radioactive Cell Proliferation Assay (Promega).

[2] = system: MRSA USA300 (S. aureus LAC); details: for decrease in anti-microbial activity in serum: 50% NHS versus no serum; for MIC + NHS: MRSA USA300 in 50% (v/v) normal human serum
Description: The antimicrobial activities of these four compounds were evaluated in the presence of serum. Such a consideration is critical in evaluating the potential of antimicrobial compounds to be used systemically, as serum components (e.g. proteins) may complicate antimicrobial activity. The assay was conducted similarly as described above, with the media supplemented with 50% normal human serum (NHS).
as §1, §2, §3

human erythrocytes = assay type: cell-based; details: red cells of human, 1 h
Excerpt: A detrimental property of most AMPs is their toxicity towards host cells due to non-specific interactions with eukaryotic membranes. Thus, the development of antimicrobial oligomers is often aimed at maximizing antimicrobial activity while minimizing eukaryotic cell toxicity. The inventors therefore sought to determine the toxicity of the cyclic peptoids by measuring hemolytic activity. The concentration of antimicrobial compound required to lyse 10% of human erythrocytes (HC10) following incubation for 1 hour at 37° C., was determined.
Hemolysis assays were conducted in 96-well plates using fresh human erythrocytes in PBS (phosphate-buffered saline) solution. Erythrocytes treated with a detergent (1% Triton X-100) solution were used as a positive control for erythrocyte lysis, and vehicle buffer (PBS) was used as a negative control. Hemolytic percentages were defined as [(A−Atestblank)/(Acontrol−Ablank)]×100, where A is the absorbance of the test well and Acontrol the average absorbance of wells with erythrocytes exposed to […], Atestblank (PBS and antimicrobial) and Ablank (PBS only).

HeLa cells = test: in vitro; details: HeLa cells, 1 hr incubation at 37° C.
Description: as §4, §5, §6

physchem = details: water
S. aureus LAC = test: Scanning electron microscopy of treated cells (Example 1); assay type: cell-based, Staphylococcus aureus; details: sub-MIC, MIC, or supra-MIC; 1 hr or 18 hr
Excerpt: AMPs have long been thought to exert their bactericidal activities by interacting with negatively-charged bacterial membranes (Zasloff, Nature 2002, 415, 389-395; Ivankin, et al, Angew. Chem. Int. Ed. 2010, 49, 8462-8465). While the exact mode of action has yet to be fully understood, the interaction of the AMP eventually leads to damage of the bacterial membrane that is visible by scanning electron microscopy (SEM). (Hartmann et al, 2010, Antimicrob Agents Ch 54, 3132-3142) SEM was used to examine the morphological changes which occur to the S. aureus cell surface upon exposure to peptoid antimicrobials (FIG. 2).
SEM samples were prepared following the procedure outlined in Hartmann et al ([…], Antimicrob Agents Ch 54:3132-3142). Mid-exponential S. aureus LAC in LB medium (10 g/L tryptone and 5 g/L yeast, pH 7.4) was prepared by diluting an overnight culture of S. aureus LAC in LB media till OD600˜0.4 (approximately 3 hours at 37° C.). […] After washing with PBS, the samples were treated with 30% ethanol for 10 minutes, 3% uranyl acetate (Electron Microscopy Sciences) in 30% ethanol/water, 50% ethanol for 10 minutes, and 70% ethanol overnight at 4° C. […]

[3] = system: Plasmodium falciparum 3D7; details: 3D7, 96 h
Description: In order to assess the ability of the peptoid oligomers described herein to act as antimalarial agents, fluorescence-based in vitro antimalarial assays were performed.
Cultures are maintained by changing the medium daily and keeping parasitemia below 6%. When performed, parasite cultures are synchronized using a MACS cell separation column (Miltenyi Biotec). To determine parasitemia, the number of parasitized erythrocytes from 500 cells in a Giemsa stained blood smear are counted.
Drug Treatment: • 1. Add 100 μL of warm (37° C.) complete media containing drug to each well of a 96 multi-well clear, sterile plate. • 2. […] After 96 hours of growth*, freeze at −80° C. overnight. *Note: Growth can be examined by pipetting 5 from desired wells onto slides and creating blood smears. […] After freezing, thaw at 37° C. for 4 hours. • 6. Transfer 100 μL, pipetting wells up and down to mix, to a black, sterile 96 well plate. • 7. Create working solution of 0.2 μL of SYBR Green per 1 mL of lysis buffer, and add 100 μL of this solution to each well, pipetting up and down to mix/lyse erythrocytes. *Note: mixture should be a translucent red color. • 8. Incubate at room temperature, protected from light, on a shaker for 1 hour.
Measure the fluorescence using excitation and emission wavelengths of 485 and 530 nm, respectively. […]

[4] = Table 2, S. aureus LAC, clinical isolate of MRSA
[5] = Table 3, MRSA USA300, without serum

SMILES: NCCCN1CC(=O)N(Cc2cc(C(F)(F)F)cc(C(F)(F)F)c2)CC(=O)N(CCCN)CC(=O)N(Cc2cc(C(F)(F)F)cc(C(F)(F)F)c2)CC(=O)N(CCCN)CC(=O)N(Cc2cc(C(F)(F)F)cc(C(F)(F)F)c2)CC1=O [Compound C125, C(NapNbtfmb)3]
MIC [1, 4]: 3.9 µg/mL (≈ 3.27 µM) | MIC [1, 5]: 3.9 µg/mL (≈ 3.27 µM) | CC50 at 1 h (in vitro; human): 47 µg/mL (≈ 39.4 µM) | decrease in anti-microbial activity in serum [2]: sixteen-fold | MIC + NHS [2]: 62.5 µg/mL

MIC ([1]; USA300): 3.9 µg/mL (≈ 3.88 µM)
SMILES: NCCCN1CC(=O)N(c2ccc3c(c2)Cc2ccccc2-3)CC(=O)N(CCCN)CC(=O)N(c2ccc3c(c2)Cc2ccccc2-3)CC(=O)N(CCCN)CC(=O)N(c2ccc3c(c2)Cc2ccccc2-3)CC1=O [Compound C106, C(NapN2flene)3]

SMILES: Cc1ccc(CN2CC(=O)N(CCCN)CC(=O)N(Cc3ccc(C)cc3)CC(=O)N(CCCN)CC(=O)N(Cc3ccc(C)cc3)CC(=O)N(CCCN)CC2=O)cc1 [Compound C122, C(NapNpmpm)3]
MIC [1, 4]: 15.6 µg/mL (≈ 18.9 µM)

HC10 (concentration required to lyse 10% of human erythrocytes) (human erythrocytes): >250 µg/mL
SMILES: NCCCCN1CC(=O)N(Cc2ccccc2)CC(=O)N(CCCCN)CC(=O)N(Cc2ccccc2)CC(=O)N(CCCCN)CC(=O)N(Cc2ccccc2)CC1=O [Compound 30, C(NabNpm)3] (cyclo([Nlys][Nphe][Nlys][Nphe][Nlys][Nphe]))

SMILES: CC(C)C[C@@H]1NC(=O)[C@H](CCCN)NC(=O)[C@H](C(C)C)NC(=O)[C@@H]2CCCN2C(=O)[C@@H](Cc2ccccc2)NC(=O)[C@H](CC(C)C)NC(=O)[C@H](CCCN)NC(=O)[C@H](C(C)C)NC(=O)[C@@H]2CCCN2C(=O)[C@@H](Cc2ccccc2)NC1=O [Gramicidin S, reference compound] (cyclo(V[Orn]L[dF]PV[Orn]L[dF]P))
MIC [1, 5]: 31.3 µg/mL (≈ 27.4 µM) | CC50 (in vitro): 31.3 µg/mL (≈ 27.4 µM) | MIC + NHS [2]: 31.3 µg/mL

SMILES: NCCCN1CC(=O)N(CC(c2ccccc2)c2ccccc2)CC(=O)N(CCCN)CC(=O)N(CC(c2ccccc2)c2ccccc2)CC(=O)N(CCCN)CC(=O)N(CC(c2ccccc2)c2ccccc2)CC1=O [Compound C3, C(NapNdp)3]
CC50 (in vitro): 63 µg/mL (≈ 59.8 µM) | MIC + NHS [2]: 15.6 µg/mL

HC10 (concentration required to lyse 10% of human erythrocytes) (human erythrocytes): >62.5 µg/mL
SMILES: N=C(N)NCCCCN1CC(=O)N(CC(c2ccccc2)c2ccccc2)CC(=O)N(CCCCNC(=N)N)CC(=O)N(CC(c2ccccc2)c2ccccc2)CC(=O)N(CCCCNC(=N)N)CC(=O)N(CC(c2ccccc2)c2ccccc2)CC(=O)N(CCCCNC(=N)N)CC(=O)N(CC(c2ccccc2)c2ccccc2)CC(=O)N(CCCCNC(=N)N)CC(=O)N(CC(c2ccccc2)c2ccccc2)CC1=O [Compound 31, C(NgbNdp)5]

MIC ([1]; USA300): 3.9 µg/mL (≈ 3.85 µM)
SMILES: NCCCN1CC(=O)N(C(c2ccccc2)c2ccccc2)CC(=O)N(CCCN)CC(=O)N(C(c2ccccc2)c2ccccc2)CC(=O)N(CCCN)CC(=O)N(C(c2ccccc2)c2ccccc2)CC1=O [Compound C104, C(NapNdpm)3]

MIC ([1]; USA300): 3.9 µg/mL (≈ 3.95 µM)
SMILES: NCCCN1CC(=O)N(Cc2ccc(C(F)(F)F)cc2)CC(=O)N(CCCN)CC(=O)N(Cc2ccc(C(F)(F)F)cc2)CC(=O)N(CCCN)CC(=O)N(Cc2ccc(C(F)(F)F)cc2)CC1=O [Compound C123, C(NapNptfmpm)3]

HC10 (concentration required to lyse 10% of human erythrocytes) (human erythrocytes): >250 µg/mL
SMILES: NCCCN1CC(=O)N(Cc2ccccc2)CC(=O)N(CCCN)CC(=O)N(Cc2ccccc2)CC(=O)N(CCCN)CC(=O)N(Cc2ccccc2)CC1=O [Compound 23, C(NapNpm)3] (cyclo([Nphe][Gly(N(CH2)3NH2)][Nphe][Gly(N(CH2)3NH2)][Nphe][Gly(N(CH2)3NH2)]))

SMILES: Cc1cc(C)cc(CN2CC(=O)N(CCCN)CC(=O)N(Cc3cc(C)cc(C)c3)CC(=O)N(CCCN)CC(=O)N(Cc3cc(C)cc(C)c3)CC(=O)N(CCCN)CC2=O)c1 [Compound C124, C(NapNdmb)3]
HC10 (concentration required to lyse 10% of human erythrocytes) (human erythrocytes): 125 µg/mL | MIC [1, 4]: 3.9 µg/mL (≈ 4.49 µM) | MIC ([1]; USA300): 3.9 µg/mL (≈ 4.49 µM) | CC50 at 24 h (in vitro; human): ~100 µg/mL (≈ 115 µM) | CC50 at 1 h (in vitro; human): 180 µg/mL (≈ 207 µM) | LC50 (50% lethal concentration) (HeLa cells): ~180 µg/mL (≈ 207 µM) | solubility (physchem): ≥ 15 mg/mL | decrease in anti-microbial activity in serum [2]: approximately four-fold | MIC + NHS [2]: 15.6 µg/mL | cell morphology by SEM (S. aureus LAC): cell surface damage | IC50 [3]: 17 µM

MIC ([1]; USA300): 3.9 µg/mL (≈ 3.56 µM)
SMILES: NCCCN1CC(=O)N(CCC(c2ccccc2)c2ccccc2)CC(=O)N(CCCN)CC(=O)N(CCC(c2ccccc2)c2ccccc2)CC(=O)N(CCCN)CC(=O)N(CCC(c2ccccc2)c2ccccc2)CC1=O [Compound C103, C(NapNdpp)3]

IC50 [3]: 26.8 µM
SMILES: COc1ccc(CN2CC(=O)N(CCCN)CC(=O)N(Cc3ccc(OC)c(OC)c3)CC(=O)N(CCCN)CC(=O)N(Cc3ccc(OC)c(OC)c3)CC(=O)N(CCCN)CC2=O)cc1OC [Compound C5-1]

MIC ([1]; USA300): 3.9 µg/mL (≈ 3.85 µM)
SMILES: NCCCN1CC(=O)N(Cc2ccc(-c3ccccc3)cc2)CC(=O)N(CCCN)CC(=O)N(Cc2ccc(-c3ccccc3)cc2)CC(=O)N(CCCN)CC(=O)N(Cc2ccc(-c3ccccc3)cc2)CC1=O [Compound C105, C(NapNpp)3]
